# Assays:
# Type in all cases: cell-based
# Gli3 = experiment: Hh ligand-dependent Gli3 processing in Shh-EGFP cells
# Description: Each compound or vehicle treatment was conducted in the presence or absence of 10% (v/v) Shh-N-conditioned medium. The cells were then lysed by incubation with SDS-PAGE loading buffer composed of 50 mM Tris-HCl, pH 6.8, 2% (w/v) SDS, 8% (v/v) glycerol, 100 mM DTT, 0.1 mg/mL bromophenol blue, EDTA-free protease inhibitor cocktail (Roche) and Phosstop (Roche) for 5 min in a cold room. […] The membranes were dehydrated with methanol and probed overnight at 4° C. with goat polyclonal anti-Gli3 antibody (1 μg/mL; R & D Systems, AF3690) in PBS containing 4% (w/v) non-fat dry milk and 0.01% (v/v) Tween-20 (immunoblot blocking buffer). […] Band intensities of Gli3FL and Gli3R were quantified using ImageJ64 software (NIH), and three independent experiments were used to determine the average Gli3FL/Gli3R ratio for each compound.
# Wnt pathway activity = experiment: Wnt-LIGHT cell assay with Wnt3a-conditioned medium
# Description: Wnt-LIGHT cells [see Hyman et al. Proc Natl Acad Sci USA. 2009; 106(33):14132-7], a L-cell-based cell line containing a stably integrated TCF/LCF-dependent firefly luciferase reporter (SuperTopFlash), constitutive Renilla luciferase reporter (pRLSV40, Promega), and geneticin resistance vector (pcDNA3, Invitrogen), were cultured in DMEM (Invitrogen, 11965) containing 10% (v/v) fetal bovine serum (Invitrogen, No. 26140), 400 μg/mL G418 (Invitrogen, 11811) and 1× PenStrep (Gibco, 15140).
# (§1) All test compounds were dissolved in DMSO at 50 mM, serially diluted by 1:3, 1:4 or 1:5 in a 96-well translucent microplate (Greiner bio-one, 650201) and stored at −20° C. These serial dilutions were added to assay media freshly with final DMSO concentration of 0.2% (v/v).
# The Wnt-LIGHT cell assay provides a measure of Wnt pathway activity. Wnt3a-conditioned medium was prepared by culturing Wnt3a-expressing L cells obtained from ATCC in DMEM (Invitrogen, 11965) containing 10% (v/v) fetal bovine serum (Invitrogen, No. 26140) and 1× PenStrep (Gibco, 15140). […] The cells were lysed with passive lysis buffer (50 μL/well), and 10 μL of the obtained lysate were analyzed for firefly and Renilla luciferase activities using Dual-Luciferase Reporter Assay System (Promega, E1960) (50 μL/well of each reagent) on a microplate luminometer (Veritas). Biological triplicates were analyzed for each test compounds.
# Gli1 = target: T1, Gli1 (Homo sapiens, UniProt P08151); experiment: Overexpression of Gli1 in NIH-3T3 cells, firefly luciferase reporter
# T1 construct: expressed in transfected cells; host or cells: NIH-3T3 (mouse fibroblasts)
# T1 sequence (P08151 1-1106): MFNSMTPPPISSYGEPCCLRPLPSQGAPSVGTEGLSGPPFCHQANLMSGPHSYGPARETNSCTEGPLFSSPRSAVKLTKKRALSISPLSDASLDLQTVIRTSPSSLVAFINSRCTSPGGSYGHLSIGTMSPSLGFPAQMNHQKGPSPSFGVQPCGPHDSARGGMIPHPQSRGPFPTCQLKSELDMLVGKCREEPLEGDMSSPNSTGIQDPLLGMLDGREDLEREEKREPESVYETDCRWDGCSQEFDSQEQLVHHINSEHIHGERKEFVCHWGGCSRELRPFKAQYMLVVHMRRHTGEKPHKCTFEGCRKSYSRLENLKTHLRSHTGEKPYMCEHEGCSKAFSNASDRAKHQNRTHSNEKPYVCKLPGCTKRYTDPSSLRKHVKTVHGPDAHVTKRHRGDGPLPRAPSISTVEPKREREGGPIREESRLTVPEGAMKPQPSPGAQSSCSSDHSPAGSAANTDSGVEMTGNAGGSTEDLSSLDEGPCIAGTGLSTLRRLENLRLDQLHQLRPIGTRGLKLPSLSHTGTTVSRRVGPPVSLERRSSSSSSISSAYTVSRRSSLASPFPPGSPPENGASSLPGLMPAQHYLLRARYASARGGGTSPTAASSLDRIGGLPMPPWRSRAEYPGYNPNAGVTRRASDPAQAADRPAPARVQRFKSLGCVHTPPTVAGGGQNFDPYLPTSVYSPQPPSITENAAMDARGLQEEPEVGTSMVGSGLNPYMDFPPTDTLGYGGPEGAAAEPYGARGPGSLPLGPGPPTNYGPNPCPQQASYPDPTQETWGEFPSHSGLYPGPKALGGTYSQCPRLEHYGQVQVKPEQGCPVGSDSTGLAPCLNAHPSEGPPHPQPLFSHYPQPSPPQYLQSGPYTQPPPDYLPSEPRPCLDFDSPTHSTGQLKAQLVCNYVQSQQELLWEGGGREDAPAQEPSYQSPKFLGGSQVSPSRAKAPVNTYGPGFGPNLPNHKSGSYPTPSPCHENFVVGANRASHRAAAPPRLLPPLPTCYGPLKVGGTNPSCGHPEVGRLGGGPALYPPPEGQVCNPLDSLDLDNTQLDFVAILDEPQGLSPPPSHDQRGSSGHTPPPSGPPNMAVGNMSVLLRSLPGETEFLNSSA
# Description: NIH-3T3 cells were obtained from ATCC and cultured in DMEM (Invitrogen, 11965) containing 10% (v/v) calf serum (ATCC, 30-2030), 1 mM sodium pyruvate (Invitrogen, 11360) and 1× PenStrep (Gibco, 15140).
# as §1
# Overexpression of Gli1 or Gli2 in NIH-3T3 cells provides a measure of Gli1- or Gli1/Gli2-induced pathway activity, respectively. NIH 3T3 cells were seeded into a 24-well plate (35,000 cells/well) and cultured for 30 hrs. […] The cells were lysed with passive lysis buffer (200 μL/well), and 10 μL of the obtained lysate were analyzed for firefly and Renilla luciferase activities using Dual-Luciferase Reporter Assay System (Promega, E1960) (50 μL/well of each reagent) on a microplate luminometer (Veritas). Biological triplicates were analyzed for each test compounds.
structure (smiles),measurement,setting,value
CCOc1ccc(-[n+]2cc(-c3ccc(Br)cc3)n3c2CCCCC3)cc1 [Compound A-1],Effect on Gli3FL phosphorylation,Gli3,Nor did the compound prevent Gli3FL phosphorylation
same,"Effect on Gli3 processing, Gli3FL/Gli3R ratio",Gli3; ShhN stimulation,did not perturb Gli3 processing
same,Inhibition of Wnt signaling,Wnt pathway activity,did not inhibit Wnt signaling
same,"IC50, firefly luciferase",Wnt pathway activity; Wnt-LIGHT w/ Wnt3a,No inhibition
same,Exogenous Gli1 activity,Gli1,potently blocked

# — patent US9611276B2, “Imidazo bicyclic iminium compounds as antitumor agents” (THE BOARD OF TRUSTEES OF THE LELAND STANFORD JUNIOR …, priority 2012, dated 2017)
